Data reported in patent US11376306B2, “Peptides and uses therefor as antiviral agents” (priority 2017, dated 2022).
Positions of bridges follow the written chain, without caps; N, C: chain ends. Non-standard residues stand in square brackets, D forms with d. Residues, ends and D or L forms follow the SMILES beside them.

Tests used:
RSV A2 = experiment: Cytopathic effect (CPE) assay, RSV A2 on Hep-2 cells; assay type: cell-based, Respiratory syncytial virus; details: CPE assay on Hep-2 cells, MOI 0.02, 5 days
Protocol: FIG. 1: Effect of H-RRKKcwwftfiac-OH (PSP VI A1) against RSV A2 in vitro. The ability of the peptide to inhibit the replication of RSV A2 was determined by CPE assay on Hep-2 cells. Experiments were done in triplicates and carried out in the presence of DMSO or increasing concentration of test compound.
(§1) Cytopathic effect (CPE) assay for HSV, RSV and CMV: Appropriate cells were seeded into 96 well plates and incubated overnight until they reached ˜70% confluency. Viruses were treated with various concentrations of peptide or vehicle for 90 minutes at 4° C. and added on to the confluent monolayer of cells for the rest of the assay. At the end of the incubation period, the viability of the cells was determined by adding MTT reagent and incubating the plates at 37° C. for 2-4 hours at 5% CO2. After the incubation, 100% isopropanol was added to solubilise the formazan crystals and the absorbance was recorded at 540 nm subtracting the background at 620 nm.
(§2) Pauwels formula (shown below) was used to calculate the percent cell protection achieved by the positive control or test compounds.
(§3) Percent cell protection=([ODt]virus−[ODc]virus/[ODc]mock−[ODc]virus)×100
(§4) These percentages were used to determine the ECso which were calculated by non-linear regression analysis with IDBS XLFit Excel Add-in Version 5.4.0.8

HSV-2 = experiment: Cytopathic effect (CPE) assay, HSV-2 on Vero cells; assay type: cell-based, Herpes Simplex Virus; details: MOI 0.02, 4 days
Protocol: FIG. 3: Effect of PSP VI A1 against HSV-2 in vitro. The ability of the peptide to inhibit the replication of HSV was determined by CPE assay on Vero cells. Experiments were done in triplicates and carried out in the presence of DMSO or increasing concentration of test compound.
as §1, §2, §3, §4

CMV AD169 = experiment: Cytopathic effect (CPE) assay, CMV AD169 on HFFF-2 cells; assay type: cell-based, Cytomegalovirus; details: CPE assay on HFFF-2 cells, MOI 0.006, 14 days
Protocol: FIG. 5: Effect of PSP VI A1 against CMV in vitro. The ability of the peptide to inhibit the replication of CMV was determined by CPE assay on HFFF-2 cells. Experiments were done in triplicates and carried out in the presence of DMSO or increasing concentration of test compound.
as §1, §2, §3, §4

HIV-1 92UG029 = assay type: cell-based, Human Immunodeficiency Virus
Protocol: FIG. 7: Effect of PSP VI A1 against HIV-1 92UG029 in vitro. The ability of the peptide to inhibit the replication of HIV was determined by reverse transcriptase assay on PBMCs. Experiments were carried out in the presence of DMSO or increasing concentration of peptide. Results are presented as mean value of triplicate measurements.
Anti-HIV Efficacy Evaluation in Fresh Human PBMCs: PBMCs were infected with various concentrations of peptide treated viruses and incubated at 37° C., 5% CO2 for seven days. After this incubation, the cells were centrifuged down and the supernatants were collected for reverse transcriptase activity (RT) assay. The cytotoxic effects of the compounds were studied with the addition of MTS to the cells following the removal of the supernatant. Data analysis for IC50 and TC50 was done by the CRO with their in house computer program.
Reverse transcriptase activity assay: Reverse transcriptase (RT) assay was carried out in a microtiter plate. Briefly Tritiated thymidine triphosphate (3H-TTP, 80 Ci/mmol, NEN;(GE Healthcare) was prepared as a stock solution by combining 150 μL poly rA (20 mg/mL) with 0.5 mL oligo dT (20 units/mL) and 5.35 mL sterile dH2O. Fresh RT reaction buffer was prepared with 125 μL 1.0 M EGTA, 125 μL dH2O, 125 μL 20% Triton X100, 50 μL 1.0 M Tris (pH 7.4), 50 μL 1.0 M DTT, and 40 μL 1.0 M MgCl2. The final reaction mixture was obtained by mixing 1 part of 3H-TTP, 4 parts dH2O, 2.5 parts poly rA:oligo dT stock and 2.5 parts reaction buffer. Ten microliters of this reaction mixture was added to the microtiter plate and 15 μL of virus containing supernatant is added and mixed. Then the plate was incubated at 37° C. for 60 minutes. After the incubation, the reaction volume was spotted onto DE81 filter-mats (Wallac), washed extensively with 5% sodium phosphate buffer or 2× SSC (Life Technologies), then in distilled water which was followed by 70% ethanol wash and air drying. Standard liquid scintillation techniques were used to quantify the incorporated radioactivity (counts per minute, CPM).

[1] = Cytotoxicity Assay 2 (CellTiter 96 AQueous One) on MDCK cells; assay type: cell-based; details: dog, 0.1-100 μM, no significant toxicity, read-out: CE50 (Cytotoxic Effect 50)
Protocol: (§5) Cytotoxicity Assay 2: MDCK cells or A549 cells (˜5000 cells/well) are grown overnight on 96 well plates. The media is replaced by serially diluted peptides and incubated again for 24/48 h. The culture medium is removed and 20 μl of CellTiter 96® AQueous One Solution […] (Promega, Wis., USA) is added and incubated at 37° C. for 2 h. The optical density is measured at 490 nm in an microplate reader (iMARK, BioRad, USA).
(§6) Cytotoxic effects of anti-viral peptides on MDCK cells or A549 cells: The cytotoxic effects of anti-viral peptides are shown in FIG. 12 and FIG. 13 which are assessed as explained in Example 1. Briefly, the MDCK cells/A549 cells are treated with either 0 μM peptide (Mock) or increasing concentrations (i.e., 0.1 μM, 0.3 μM, 1 μM, 3 μM, 10 μM, 30 μM and 100 μM) of PSP V A19 and PSP VI A1 and the cell death is determined by 48 hours post infection by a cytotoxicity assay with CellTiter 96® AQueous One Solution cell proliferation assay kit (Promega, USA) as explained by manufacturer. The results are normalized to the mock treated cells.

[2] = Cytotoxicity Assay 2 (CellTiter 96 AQueous One) on A549 cells; assay type: cell-based; details: human, 0.1-100 μM, no significant toxicity, read-out: CE50 (Cytotoxic Effect 50)
Protocol: as §5, §6

IC50 (HIV-1 92UG029)	Compound	EC50 (RSV A2)	EC50 (HSV-2)	EC50 (CMV AD169)	CC50 at 48 h [1]	CC50 at 48 h [2]
–	CC[C@@H](C)[C@H]1NC(=O)[C@@H](Cc2ccccc2)NC(=O)[C@@H]([C@H](C)O)NC(=O)[C@@H](Cc2ccccc2)NC(=O)[C@@H](Cc2c[nH]c3ccccc23)NC(=O)[C@@H]([C@H](C)O)NC(=O)[C@H](NC(=O)[C@H](CCCCN)NC(=O)[C@H](CCCCN)NC(=O)[C@H](CCCNC(=N)N)NC(=O)[C@@H](N)CCCNC(=N)N)CSSC[C@H](C(=O)O)NC(=O)[C@@H](CC(N)=O)NC1=O [PSP IV A17, H-RRKKctwftfinc-OH] (H-RRKK[dC][dT][dW][dF][dT][dF][dI][dN][dC]-OH; disulfide 5-13)	12.6 µM	~30 µM	18.9 µM	–	–
79.1 µM	CC[C@@H](C)[C@@H](NC(=O)[C@@H](Cc1ccccc1)NC(=O)[C@H](NC(=O)[C@@H](Cc1ccccc1)NC(=O)[C@@H](Cc1c[nH]c2ccccc12)NC(=O)[C@H](NC(=O)[C@H](CCCCN)NC(=O)[C@H](CCCCN)NC(=O)[C@H](CCCNC(=N)N)NC(=O)[C@@H](N)CCCNC(=N)N)[C@H](C)O)[C@H](C)O)C(=O)N[C@H](CC(N)=O)C(=O)O [PSP IV A17-LS, H-RRKKtwftfin-OH] (H-RRKK[dT][dW][dF][dT][dF][dI][dN]-OH)	–	–	–	–	–
–	CC[C@@H](C)[C@H]1NC(=O)[C@@H](Cc2ccccc2)NC(=O)[C@@H]([C@H](C)O)NC(=O)[C@@H](Cc2ccccc2)NC(=O)[C@@H](Cc2c[nH]c3ccccc23)NC(=O)[C@@H](Cc2c[nH]c3ccccc23)NC(=O)[C@H](NC(=O)[C@H](CCCCN)NC(=O)[C@H](CCCCN)NC(=O)[C@H](CCCNC(=N)N)NC(=O)[C@@H](N)CCCNC(=N)N)CSSC[C@H](C(=O)O)NC(=O)[C@@H](CC(N)=O)NC1=O [PSP V A19, H-RRKKcwwftfinc-OH] (H-RRKK[dC][dW][dW][dF][dT][dF][dI][dN][dC]-OH; disulfide 5-13)	–	–	–	> 30 µM	> 30 µM
66.5 µM	CC[C@@H](C)[C@H]1NC(=O)[C@@H](Cc2ccccc2)NC(=O)[C@@H]([C@H](C)O)NC(=O)[C@@H](Cc2ccccc2)NC(=O)[C@@H](Cc2c[nH]c3ccccc23)NC(=O)[C@@H](Cc2c[nH]c3ccccc23)NC(=O)[C@H](N)CSSC[C@H](C(=O)O)NC(=O)[C@@H](CC(N)=O)NC1=O [PSP V A19-C, H-cwwftfinc-OH] (H-[dC][dW][dW][dF][dT][dF][dI][dN][dC]-OH; disulfide 1-9)	–	–	–	–	–

Compound	IC50 (HIV-1 92UG029)	EC50 (RSV A2)	EC50 (HSV-2)	EC50 (CMV AD169)	CC50 at 48 h [1]	CC50 at 48 h [2]
CC[C@@H](C)[C@H]1NC(=O)[C@@H](Cc2ccccc2)NC(=O)[C@@H]([C@H](C)O)NC(=O)[C@@H](Cc2ccccc2)NC(=O)[C@@H](Cc2c[nH]c3ccccc23)NC(=O)[C@@H](Cc2c[nH]c3ccccc23)NC(=O)[C@H](NC(=O)[C@H](CCCCN)NC(=O)[C@H](CCCCN)NC(=O)[C@H](CCCNC(=N)N)NC(=O)[C@@H](N)CCCNC(=N)N)CSSC[C@H](C(=O)O)NC(=O)[C@@H](C)NC1=O [PSP VI A1, H-RRKKcwwftfiac-OH] (H-RRKK[dC][dW][dW][dF][dT][dF][dI][dA][dC]-OH; disulfide 5-13)	60.8 µM	17.8 µM	~30 µM	13.8 µM	> 30 µM	> 30 µM
